Experiments:
Format in all cases: in vivo
[1] = system: ApoE−/− mice; assay: Treatment of ApoE−/− mice with nor-UDCA (Experiment 1); details: 0.5% w/w in western chow diet for 4 weeks after 8 weeks western chow diet, vs control
Method: In order to study the effects of nor-UDCA on atherosclerosis, ApoE-deficient mice were treated. To this end ApoE−/− mice as described in Piedrahita et. al. (PNAS, 1992, 89, 4471-4475) which carry the Apoe^tm1Unc mutation were back-crossed 10 times into the C57BL76J. ApoE-deficient mice can also be obtained from the Jackson Laboratory (Maine, US) with the strain name B6.129P2.-Apoe^tm1Unc/J(http://jaxmice.jax.org).
ApoE−/− mice (n=10) were fed with normal diet for 8 weeks post natum, followed by western chow diet for another 8 weeks. The western chow diet consists of 21% by weight fat, 1.5% by weight cholesterol and no cholic acid (“high fat diet”).
This type of western chow diet is known to force atherosclerotic plaque formation on the indicated time line in ApoE−/− mice. After eight weeks of being fed with western chow diet, the mice were segregated into two groups with each group comprising five mice. In the control group A, the mice were further fed with the western chow diet for additional four weeks. In the other group B, the ApoE−/− mice were fed with a western chow diet comprising 0.5% w/w nor-UDCA for additional four weeks. Considering a food intake of 4 g/day of chow per mouse, this corresponds to 20 mg/day of nor-UDCA per mouse.
The experimental setup is depicted in FIG. 1.

[2] = system: LDLR−/− mice; assay: Treatment of LDLR−/− mice with nor-UDCA (Experiment 2); details: 0.5% w/w in western chow diet for 4 weeks after 8 weeks western chow diet; vs control; FIG. 5
Excerpt: In a second experiment (FIGS. 4 and 5), the effect of nor-UDCA in LDLR−/− mice that were raised on a western chow diet was investigated.
As for the ApoE-deficient mice, the LDLR-deficient mice are considered to be a bona-fide animal model of atherosclerosis development. If these mice are raised on a western chow diet they evolve typical symptoms of atherosclerosis involving atherosclerotic plaque formation in the aorta (FIG. 5).
LDLR−/− mice were produced as described in Ishebashi et. al. (J. Clin. Jnnvest., 1993, 92, 883-893). The 129-derived AB1 ES cell line was used. The strain was backcrossed to C57BL/6J mice for 10 generations. Ldlr^tm1Her/Ldlr^tm1Her involves: 129S7/SvEvBrd*C57BL/6. LDLR-deficient mice can also be obtained from the Jackson Laboratory (Maine, US) with the strain name B6.129S7-Ldlr^tm1Her/J (http://jaxmice.jax.org).
As in Experiment 1, ten mice being deficient in LDLR were raised on normal diet during the first 8 weeks post natum followed by the western chow diet for another eight weeks. Afterwards, the ten mice were separated into two groups for which the control group A received further feeding on a western chow diet for 4 weeks. In the test group B, the western chow diet of the following 4 weeks was supplemented with 0.5% w/w nor-UDCA. Considering a food intake of 4 g/day of chow per mouse, this corresponds to 20 mg/day of nor-UDCA per mouse. […]

[3] = system: ApoE−/− mice; assay: Treatment of ApoE−/− mice with nor-UDCA in comparison to UDCA (Experiment 3); details: for % plaques in the aortic arch (plaque area versus total area, en-face red oil): FIG. 12; for plaques in red-oil stained aortic valve cross-sections (histological analysis): FIG. 13 top
Excerpt: (§1) ApoE-deficient mice as described in Experiment 1 were used.
ApoE−/− mice (n=15) were fed with normal diet for 8 weeks post natum, followed by western chow diet (“high fat diet”) for another 8 weeks. The mice were then segregated into three groups with each group comprising five mice. In the control group, the mice were further fed with the western chow diet for additional four weeks. In the second group, the ApoE−/− mice were fed with a western chow diet comprising 0.5% w/w nor-UDCA for additional four weeks. Finally, in the third group, the ApoE−/− mice were fed with a western chow diet comprising 0.5% w/w UDCA for additional four weeks. Considering a food intake of 4 g/day of chow per mouse, this corresponds to 20 mg/day of nor-UDCA or UDCA, respectively, per mouse.
The experimental setup is depicted in FIG. 6.

[4] = system: ApoE−/− mice; assay: Prevention of atherosclerosis in ApoE−/− mice by nor-UDCA in comparison to UDCA (Experiment 4); details: prevention study, 0.5% w/w in western chow diet for 12 weeks
Excerpt: as §1
ApoE−/− mice (n=15) were fed with normal diet for 8 weeks post natum and then segregated into three groups with each group comprising five mice. In the control group, the mice were fed with the western chow diet for additional 12 weeks. In the second group, the ApoE−/− mice were fed with a western chow diet comprising 0.5% w/w nor-UDCA for additional 12 weeks. Finally, in the third group, the ApoE−/− mice were fed with a western chow diet comprising 0.5% w/w UDCA for additional 12 weeks. Considering a food intake of 4 g/day of chow per mouse, this corresponds to 20 mg/day of nor-UDCA or UDCA, respectively, per mouse.
Thus, in this experimental prevention setup, the mice are fed with diet known to force atherosclerotic plaque formation together with either UDCA or nor-UDCA (mice of the second and third group) having preventive effects on the plaque formation. When compared to a control fed with western chow diet only, the preventive effects can be studied.
The experimental setup is depicted in FIG. 14(a).

[5] = treatment study, 0.5% w/w in western chow diet for 4 weeks

| SMILES | arteriosclerotic plaques in red-oil stained aorta cross-sections (histological analysis) ([1]; 20 weeks post natum, FIG. 2) | sclerotic area versus the aorta area (morphometric analysis) ([1]; FIG. 3) | extent and size of atherosclerotic plaque, aorta en-face stained with red oil [2] | number of hepatic neutrophil granulocytes (CD11b-positive cells in liver) ([3]; 0.5% w/w in western chow diet for 4 weeks after 8 weeks western chow diet, FIG. 7) | expression level of p-JNK in liver tissue (Western blot) ([3]; 0.5% w/w in western chow diet for 4 weeks after 8 weeks western chow diet, FIG. 8) | % plaques in the aortic arch (plaque area versus total area, en-face red oil) [3, 5] | aortic valve plaque area versus total surface area (plaques in % of the surface area) ([3]; treatment study, 0.5% w/w in western chow diet for 4 weeks, FIG. 13 quantification) | plaques in red-oil stained aortic valve cross-sections (histological analysis) [3, 5] | hepatic triglyceride levels ([3]; treatment study, 0.5% w/w in western chow diet for 4 weeks, compared to control or UDCA-treated mice, FIG. 9) | serum transaminase (alanin-amino-transferase) levels ([3]; treatment study, 0.5% w/w in western chow diet for 4 weeks, compared to control, FIG. 10) | total serum cholesterol levels ([3]; treatment study, 0.5% w/w in western chow diet for 4 weeks, compared to control, FIG. 11) | hepatic triglyceride amounts, liver preparations stained with oil-red (histology) ([4]; FIG. 15 a-c) | total serum cholesterol levels ([4]; FIG. 17) | weight of the brown adipose tissue ([4]; FIG. 18) | extent and size of atherosclerotic plaques, aorta en-face stained with red oil ([4]; FIG. 19) | serum transaminase (alanin-amino-transferase) levels ([4]; compared to control and UDCA, FIG. 16) | amount (weight) of white adipose tissue ([4]; compared to control or UDCA-treated mice, FIG. 18) | hepatic triglyceride levels (quantification in liver homogenate) ([4]; compared to control or UDCA-treated mice, FIG. 15 d) | sclerotic area versus the total aorta area (morphometric analysis) ([4]; vs control, FIG. 20) |
| --- | --- | --- | --- | --- | --- | --- | --- | --- | --- | --- | --- | --- | --- | --- | --- | --- | --- | --- | --- |
| C[C@H](CC(=O)O)[C@H]1CC[C@H]2[C@@H]3[C@@H](O)C[C@@H]4C[C@H](O)CC[C@]4(C)[C@H]3CC[C@]12C [nor-UDCA, 24-nor[3α,7β-dihydroxy-5β-cholan-23-oic] acid] | significantly reduced extent of these plaques | significantly smaller | significantly reduced | clearly reduced | capable of downregulating the expression of p-JNK | decreasing the percent of plaques | significant reduction of said % plaques | the amount of plaques is reduced | capable of significantly reducing the triglyceride-amount in the liver | trend of reducing the serum transaminase levels | seems to be capable of lowering the total cholesterol | hepatic triglyceride amounts are decreased | does not seem to reduce serum cholesterol levels | neither UDCA nor nor-UDCA had an influence | significantly reduced | significantly reduces the serum transaminase levels | strong reduction of the amount of white adipose tissue | capable of significantly reducing the triglyceride-amount in the liver | significantly smaller |
| C[C@H](CCC(=O)O)[C@H]1CC[C@H]2[C@@H]3[C@@H](O)C[C@@H]4C[C@H](O)CC[C@]4(C)[C@H]3CC[C@]12C [UDCA, reference compound] | – | – | – | – | – | decreasing the percent of plaques | – | the amount of plaques is reduced | – | – | – | – | – | neither UDCA nor nor-UDCA had an influence | – | – | – | – | – |
